Key:
Insulin receptor = Insulin receptor (Rattus norvegicus, UniProt P15127); assay type: cell membranes, Wistar, Liver, Membrane; further: in other assays of this panel Not Active means under 50% inhibition at 10 µM
Adenosine receptor A1 = target: T1, Adenosine receptor A1 (Homo sapiens, UniProt P30542); assay type: cell membranes, CHO, Membrane; details: cho;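 further: radioligand binding assay at the adenosine A1 receptor, with DPCPX serving as the labelled ligand; in other assays of this panel Not Active means under 50% inhibition at 10 µM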
T1 sequence (P30542 whole entry): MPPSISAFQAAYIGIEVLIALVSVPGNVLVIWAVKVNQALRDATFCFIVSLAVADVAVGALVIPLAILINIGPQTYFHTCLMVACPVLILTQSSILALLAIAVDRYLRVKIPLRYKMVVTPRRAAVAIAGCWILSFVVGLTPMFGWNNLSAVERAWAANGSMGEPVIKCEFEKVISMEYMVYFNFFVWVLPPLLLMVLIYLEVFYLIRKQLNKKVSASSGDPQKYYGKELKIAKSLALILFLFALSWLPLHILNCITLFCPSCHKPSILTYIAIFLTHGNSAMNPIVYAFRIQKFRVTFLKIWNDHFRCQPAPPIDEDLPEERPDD

Cytochrome P450 2A6 = target: T2, Cytochrome P450 2A6 (Homo sapiens, UniProt P11509); details: bti-tn-5b1-4; further: in other assays of this panel Not Active means under 50% inhibition at 10 µM
T2 sequence (P11509 whole entry): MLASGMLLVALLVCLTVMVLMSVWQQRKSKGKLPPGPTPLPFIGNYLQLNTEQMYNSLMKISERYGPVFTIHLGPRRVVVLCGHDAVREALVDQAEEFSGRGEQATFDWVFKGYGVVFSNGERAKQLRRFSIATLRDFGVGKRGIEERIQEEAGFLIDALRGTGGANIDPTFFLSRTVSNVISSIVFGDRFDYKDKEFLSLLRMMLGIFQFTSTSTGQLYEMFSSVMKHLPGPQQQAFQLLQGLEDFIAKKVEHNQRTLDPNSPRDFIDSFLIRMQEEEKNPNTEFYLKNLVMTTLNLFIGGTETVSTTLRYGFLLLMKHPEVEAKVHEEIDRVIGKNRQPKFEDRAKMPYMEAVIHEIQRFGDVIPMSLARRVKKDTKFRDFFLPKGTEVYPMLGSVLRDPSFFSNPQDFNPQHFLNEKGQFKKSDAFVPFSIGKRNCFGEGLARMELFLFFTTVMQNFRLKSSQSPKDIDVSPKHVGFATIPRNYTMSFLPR

[1] = DRUGMATRIX: beta-Lactamase enzyme inhibition (substrate: Nitrocefin); set-up: species or system Bacillus cereus; details: Not Active = under 50% inhibition at 10 µM
Leukotriene C4 synthase = target: T3, Leukotriene C4 synthase (Cavia porcellus, UniProt A6XA80); assay type: tissue-based, Lung;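 further: enzyme inhibition assay of leukotriene C4 synthase, using LTA4 as the substrate; in other assays of this panel Not Active means under 50% inhibition at 10 µM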
T3 sequence (A6XA80 whole entry): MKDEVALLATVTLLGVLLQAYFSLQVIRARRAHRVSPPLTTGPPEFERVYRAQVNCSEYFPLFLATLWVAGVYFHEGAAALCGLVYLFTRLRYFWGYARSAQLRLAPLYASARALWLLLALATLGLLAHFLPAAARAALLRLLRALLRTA

[2] = DRUGMATRIX: Calcium Channel Type L, Benzothiazepine radioligand binding (ligand: [3H] Diltiazem); assay type: cell membranes, Rattus norvegicus, Wistar, Brain, Membrane; details: Not Active = under 50% inhibition at 10 µM
[3] = target: T4, Angiotensin-converting enzyme (Oryctolagus cuniculus, UniProt P12822); assay type: tissue-based, Lung
T4 sequence (P12822 whole entry): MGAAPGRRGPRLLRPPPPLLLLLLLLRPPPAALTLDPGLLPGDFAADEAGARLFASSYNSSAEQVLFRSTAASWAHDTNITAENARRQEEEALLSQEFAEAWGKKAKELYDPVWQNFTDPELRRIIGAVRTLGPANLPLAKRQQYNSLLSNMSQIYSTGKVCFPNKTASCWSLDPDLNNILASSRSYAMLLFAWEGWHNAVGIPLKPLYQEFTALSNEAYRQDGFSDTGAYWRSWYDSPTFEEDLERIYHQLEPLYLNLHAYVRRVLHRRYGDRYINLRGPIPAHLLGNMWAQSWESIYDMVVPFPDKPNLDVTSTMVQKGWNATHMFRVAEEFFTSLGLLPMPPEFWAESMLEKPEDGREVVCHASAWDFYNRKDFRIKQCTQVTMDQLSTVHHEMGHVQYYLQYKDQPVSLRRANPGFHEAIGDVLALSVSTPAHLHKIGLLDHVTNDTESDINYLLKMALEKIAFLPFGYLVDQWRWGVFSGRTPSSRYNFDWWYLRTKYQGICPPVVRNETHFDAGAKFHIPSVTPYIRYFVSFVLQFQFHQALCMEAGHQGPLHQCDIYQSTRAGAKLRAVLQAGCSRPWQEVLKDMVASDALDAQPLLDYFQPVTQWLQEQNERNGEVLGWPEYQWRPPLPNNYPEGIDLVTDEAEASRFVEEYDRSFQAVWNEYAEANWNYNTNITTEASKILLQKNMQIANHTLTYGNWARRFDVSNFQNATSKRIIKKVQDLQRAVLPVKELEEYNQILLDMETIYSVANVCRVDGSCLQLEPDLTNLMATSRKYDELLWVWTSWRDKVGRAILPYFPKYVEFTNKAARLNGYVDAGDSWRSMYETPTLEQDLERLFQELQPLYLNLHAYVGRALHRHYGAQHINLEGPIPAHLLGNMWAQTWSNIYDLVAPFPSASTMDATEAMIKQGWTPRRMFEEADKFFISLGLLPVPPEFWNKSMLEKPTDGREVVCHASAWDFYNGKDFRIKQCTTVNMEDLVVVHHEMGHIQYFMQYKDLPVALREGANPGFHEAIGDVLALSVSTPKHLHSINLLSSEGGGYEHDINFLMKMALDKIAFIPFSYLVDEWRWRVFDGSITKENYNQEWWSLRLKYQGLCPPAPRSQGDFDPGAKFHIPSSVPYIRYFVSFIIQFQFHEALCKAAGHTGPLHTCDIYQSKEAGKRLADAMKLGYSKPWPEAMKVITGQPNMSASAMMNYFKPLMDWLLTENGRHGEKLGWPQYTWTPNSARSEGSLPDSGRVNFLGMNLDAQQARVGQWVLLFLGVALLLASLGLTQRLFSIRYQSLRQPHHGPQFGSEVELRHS

[4] = DRUGMATRIX: Phosphodiesterase PDE3 enzyme inhibition (substrate: [3H]cAMP + cAMP); assay type: tissue-based, Homo sapiens; details: platelet; Not Active = under 50% inhibition at 10 µM

Sequence of Insulin receptor (P15127 27-759 limits assumed): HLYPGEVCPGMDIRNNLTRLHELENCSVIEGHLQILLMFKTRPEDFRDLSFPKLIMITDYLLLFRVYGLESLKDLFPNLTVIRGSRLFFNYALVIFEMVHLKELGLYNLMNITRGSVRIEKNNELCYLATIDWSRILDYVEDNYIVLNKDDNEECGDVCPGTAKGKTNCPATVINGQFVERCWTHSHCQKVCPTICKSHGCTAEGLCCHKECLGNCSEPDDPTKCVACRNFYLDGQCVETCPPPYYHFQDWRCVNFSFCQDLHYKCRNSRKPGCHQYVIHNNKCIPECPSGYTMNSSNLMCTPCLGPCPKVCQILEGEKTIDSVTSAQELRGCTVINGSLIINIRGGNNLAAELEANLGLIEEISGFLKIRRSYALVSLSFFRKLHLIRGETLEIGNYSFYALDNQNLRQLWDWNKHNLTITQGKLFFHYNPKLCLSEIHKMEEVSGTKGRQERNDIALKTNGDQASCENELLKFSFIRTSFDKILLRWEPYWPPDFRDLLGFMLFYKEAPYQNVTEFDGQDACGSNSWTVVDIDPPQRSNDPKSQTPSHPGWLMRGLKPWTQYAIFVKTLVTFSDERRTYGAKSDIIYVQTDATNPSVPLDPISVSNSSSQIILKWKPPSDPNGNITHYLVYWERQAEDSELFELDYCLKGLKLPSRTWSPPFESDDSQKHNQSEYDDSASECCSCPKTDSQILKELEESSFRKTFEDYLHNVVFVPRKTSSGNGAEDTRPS
Sequence of Insulin receptor (P15127 764-1383 limits assumed): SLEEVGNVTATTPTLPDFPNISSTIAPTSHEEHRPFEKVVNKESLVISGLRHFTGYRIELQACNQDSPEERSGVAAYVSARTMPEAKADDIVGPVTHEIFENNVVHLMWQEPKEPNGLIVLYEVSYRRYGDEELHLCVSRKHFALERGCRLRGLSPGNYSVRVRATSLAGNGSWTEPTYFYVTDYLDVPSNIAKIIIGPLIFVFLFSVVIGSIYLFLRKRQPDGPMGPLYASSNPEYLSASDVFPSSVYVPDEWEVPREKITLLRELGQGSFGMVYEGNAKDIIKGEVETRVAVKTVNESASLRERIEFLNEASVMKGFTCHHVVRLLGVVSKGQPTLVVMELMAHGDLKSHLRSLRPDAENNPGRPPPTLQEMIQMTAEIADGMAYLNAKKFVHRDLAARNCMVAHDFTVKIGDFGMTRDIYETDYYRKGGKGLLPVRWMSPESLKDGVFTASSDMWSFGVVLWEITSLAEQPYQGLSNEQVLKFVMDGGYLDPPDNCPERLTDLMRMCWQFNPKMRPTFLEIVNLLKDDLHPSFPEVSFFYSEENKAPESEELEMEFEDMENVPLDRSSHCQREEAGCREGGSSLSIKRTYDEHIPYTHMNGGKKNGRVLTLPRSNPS

COc1c2occc2cc2ccc(=O)oc12 [METHOXSALEN]
Not Active: IC50 (Insulin receptor) | IC50 (Adenosine receptor A1) | IC50 (Cytochrome P450 2A6) | Ki (Cytochrome P450 2A6) | IC50 [1] | Ki [1] | IC50 (Leukotriene C4 synthase) | IC50 [2] | Ki [2] | IC50 [3] | IC50 [4] | Ki [4]

C[C@H]1C[C@@H]2[C@H]([C@@H](O)C[C@@]3(C)[C@H]2CC[C@]3(O)C(=O)CO)[C@@]2(C)C=CC(=O)C=C12 [METHYLPREDNISOLONE]
Not Active: IC50 (Insulin receptor) | IC50 (Adenosine receptor A1) | IC50 (Cytochrome P450 2A6) | Ki (Cytochrome P450 2A6) | IC50 [1] | Ki [1] | IC50 (Leukotriene C4 synthase) | IC50 [2] | Ki [2] | IC50 [3] | IC50 [4] | Ki [4]

Cc1cccc(C)c1OCC(C)N (stereo not given) [MEXILETINE]
Not Active: IC50 (Insulin receptor) | IC50 (Adenosine receptor A1) | IC50 (Cytochrome P450 2A6) | Ki (Cytochrome P450 2A6) | IC50 [1] | Ki [1] | IC50 (Leukotriene C4 synthase) | IC50 [2] | Ki [2] | IC50 [3] | IC50 [4] | Ki [4]

Nc1cc(N2CCCCC2)nc(N)[n+]1[O-] [MINOXIDIL]
Not Active: IC50 (Insulin receptor) | IC50 (Adenosine receptor A1) | IC50 (Cytochrome P450 2A6) | Ki (Cytochrome P450 2A6) | IC50 [1] | Ki [1] | IC50 (Leukotriene C4 synthase) | IC50 [2] | Ki [2] | IC50 [3] | IC50 [4] | Ki [4]

CO[C@H]1/C=C/O[C@@]2(C)Oc3c(C)c(O)c4c(O)c(c(/C=N/N5CCN(C6CCCC6)CC5)c(O)c4c3C2=O)NC(=O)/C(C)=C\C=C\[C@H](C)[C@H](O)[C@@H](C)[C@@H](O)[C@@H](C)[C@H](OC(C)=O)[C@@H]1C [RIFAPENTINE]
Not Active: IC50 (Insulin receptor) | IC50 (Adenosine receptor A1) | IC50 (Cytochrome P450 2A6) | Ki (Cytochrome P450 2A6) | IC50 [1] | Ki [1] | IC50 (Leukotriene C4 synthase) | IC50 [2] | Ki [2] | IC50 [3] | IC50 [4] | Ki [4]

CCCCOc1cc(CC2CNC(=O)N2)ccc1OC (stereo not given) [RO-201724]
Not Active: IC50 (Insulin receptor) | IC50 (Adenosine receptor A1) | IC50 (Cytochrome P450 2A6) | Ki (Cytochrome P450 2A6) | IC50 [1] | Ki [1] | IC50 (Leukotriene C4 synthase) | IC50 [2] | Ki [2] | IC50 [3] | IC50 [4] | Ki [4]

CC[C@@H](C(=O)[C@@H](C)[C@@H](O)[C@H](C)[C@@H]1O[C@@H]([C@@H](CC)C(=O)O)CC[C@@H]1C)[C@H]1O[C@]2(C=C[C@@H](O)[C@]3(CC[C@@](C)([C@H]4CC[C@](O)(CC)[C@H](C)O4)O3)O2)[C@H](C)C[C@@H]1C [SALINOMYCIN]
Not Active: IC50 (Insulin receptor) | IC50 (Adenosine receptor A1) | IC50 (Cytochrome P450 2A6) | Ki (Cytochrome P450 2A6) | IC50 [1] | Ki [1] | IC50 (Leukotriene C4 synthase) | IC50 [2] | Ki [2] | IC50 [3] | IC50 [4] | Ki [4]

O=C(Oc1ccccc1C(=O)O)c1ccccc1O [SALSALATE]
Not Active: IC50 (Insulin receptor) | IC50 (Adenosine receptor A1) | IC50 (Cytochrome P450 2A6) | Ki (Cytochrome P450 2A6) | IC50 [1] | Ki [1] | IC50 (Leukotriene C4 synthase) | IC50 [2] | Ki [2] | IC50 [3] | IC50 [4] | Ki [4]

O=C(O)c1cn(-c2ccc(F)cc2)c2cc(N3CCNCC3)c(F)cc2c1=O [SARAFLOXACIN]
Not Active: IC50 (Insulin receptor) | IC50 (Adenosine receptor A1) | IC50 (Cytochrome P450 2A6) | Ki (Cytochrome P450 2A6) | IC50 [1] | Ki [1] | IC50 (Leukotriene C4 synthase) | IC50 [2] | Ki [2] | IC50 [3] | IC50 [4] | Ki [4]

CC(C)NCC(O)c1ccc(NS(C)(=O)=O)cc1 (stereo not given) [SOTALOL]
Not Active: IC50 (Insulin receptor) | IC50 (Adenosine receptor A1) | IC50 (Cytochrome P450 2A6) | Ki (Cytochrome P450 2A6) | IC50 [1] | Ki [1] | IC50 (Leukotriene C4 synthase) | IC50 [2] | Ki [2] | IC50 [3] | IC50 [4] | Ki [4]

O.O.O.O.O.O.[Cl-].[Cl-].[Sr+2] [STRONTIUM CHLORIDE HEXAHYDRATE]
Not Active: IC50 (Insulin receptor) | IC50 (Adenosine receptor A1) | IC50 (Cytochrome P450 2A6) | Ki (Cytochrome P450 2A6) | IC50 [1] | Ki [1] | IC50 (Leukotriene C4 synthase) | IC50 [2] | Ki [2] | IC50 [3] | IC50 [4] | Ki [4]

O=C1C(CC[S+]([O-])c2ccccc2)C(=O)N(c2ccccc2)N1c1ccccc1 (stereo not given) [SULFINPYRAZONE]
Not Active: IC50 (Insulin receptor) | IC50 (Adenosine receptor A1) | IC50 (Cytochrome P450 2A6) | Ki (Cytochrome P450 2A6) | IC50 [1] | Ki [1] | IC50 (Leukotriene C4 synthase) | IC50 [2] | Ki [2] | IC50 [3] | IC50 [4] | Ki [4]

NC(=O)N1C(=O)/C(=C(\O)c2cccs2)c2cc(Cl)ccc21 [TENIDAP]
Not Active: IC50 (Insulin receptor) | IC50 (Adenosine receptor A1) | IC50 (Cytochrome P450 2A6) | Ki (Cytochrome P450 2A6) | IC50 [1] | Ki [1] | IC50 (Leukotriene C4 synthase) | IC50 [2] | Ki [2] | IC50 [3] | IC50 [4] | Ki [4]

COc1cc2nc(N3CCN(C(=O)C4CCCO4)CC3)nc(N)c2cc1OC (stereo not given) [TERAZOSIN]
Not Active: IC50 (Insulin receptor) | IC50 (Adenosine receptor A1) | IC50 (Cytochrome P450 2A6) | Ki (Cytochrome P450 2A6) | IC50 [1] | Ki [1] | IC50 (Leukotriene C4 synthase) | IC50 [2] | Ki [2] | IC50 [3] | IC50 [4] | Ki [4]

CN(C/C=C/C#CC(C)(C)C)Cc1cccc2ccccc12 [TERBINAFINE]
Not Active: IC50 (Insulin receptor) | IC50 (Adenosine receptor A1) | IC50 (Cytochrome P450 2A6) | Ki (Cytochrome P450 2A6) | IC50 [1] | Ki [1] | IC50 (Leukotriene C4 synthase) | IC50 [2] | Ki [2] | IC50 [3] | IC50 [4] | Ki [4]

From ChEMBL document CHEMBL1909046, “DrugMatrix in vitro pharmacology data”
